Values of other authors as cited in article PMC4984525 (Cancer, 2011).

Tested on: patients with resistant ovarian cancer
Conditions: preliminary results of a Phase 2 trial; cited from earlier work

For Cc1ccc(C(=O)N(CCCN)[C@@H](c2nc3cc(Cl)ccc3c(=O)n2Cc2ccccc2)C(C)C)cc1 [ispinesib], the clinical activity is given as “has clinical activity”.
